Laboratory results published in patent publication US20240124434A1, “ATF6 INHIBITORS AND USES THEREOF” (Altos Labs, Inc., priority 2018, published 2024).
Where two headings read alike, the source gives them in different places.

Tested on: ATF6
Experiment: ERSE ATF6-luciferase reporter assay (thapsigargin-induced ER stress)
Type: cell-based, human
Details: thapsigargin-induced ER stress, U2-OS ATF6 luc reporter cells; for inhibition at 1 µM: 8 h
Description: Human bone osteosarcoma (U2-OS) cells were obtained from the American Type Culture Collection (ATCC HTB-96, ATCC Manassas, VA) and were cultured with growing medium containing Dulbecco's Modified Eagle's Medium (DMEM) (Cat. No.:SH30023.02, HyClone) supplemented with fetal bovine serum (FBS) 10% (Cat. No.: 16000044, Gibco) and 1% penicillin-streptomycin antibiotic cocktail (Cat. No.: SV30010, Hyclone).
Cignal Lenti ATF6 luc reporter (Qiagen #CLS-6031L) was used to produce a stable cell line in U2-OS cells. […] The number of response elements as well as the intervening sequence between response elements has been experimentally optimized to maximize the signal to noise ratio.
Compounds were prepared as 10 mM stock solutions and stored at −80° C.
U2-OS ATF6 luc reporter cells were thawed 3-4 days and split once prior to assays. […] At the day of experiment, cells were pre-treated for 30 min with 50 μL growing medium containing either vehicle (dimethyl sulfoxide (DMSO)) (Cat. No.: D2650, Sigma-Aldrich) or 1 μM test compound. After the pre-incubation time, 50 μL of a solution containing 0.2 μM thapsigargin (Tg)(an ER stress inducer) was added to respective wells. This Tg solution also contained vehicle or test compounds at 1 μM. The final concentration of DMSO in each well was kept at 0.3%. Plates were incubated for 8 hr in humidified chambers.
Finally, after 8 hr, plates were cooled to room temperature for 10 min prior to luciferase assays. Luciferase reactions were performed using Luciferase Assay System (Cat. No.: E4550, Promega). Briefly, each well was washed with 100 μl of PBS1X and then 20 μl of lysis reagent were added into each well. Plates were shaken for 10 min, then 50 μl of Luciferase Assay Reagent were added to each well and luminescence was read with an integration time of 1 s and a gain of 110 in a Synergy 4 Microplate reader.
For the assessment of the half-maximal inhibitory concentration (IC50) for selected compounds, dose-response assays were performed. Compounds were serially diluted using DMSO starting at 30 μM until 1 nM. The assays were run as described above.

[1] = Homo sapiens, U2OS, 1 μM test compound, 8 hr, read-out: Inh. ATF6-Luc @ 1 μM [%]
[2] = Homo sapiens, U2OS, dose-response 30 μM to 1 nM, read-out: IC50 ATF6-Luc reporter

Compound | inhibition at 1 µM [1] | IC50 [2] | further results
CC(=O)c1cc(C(=O)Nc2cnn(Cc3ccc(C(F)(F)F)cc3C(F)(F)F)c2)no1 [Compound 3, 5-acetyl-N-(1-(2,4-bis(trifluoromethyl)benzyl)-1H-pyrazol-4-yl)isoxazole-3-carboxamide] | < 25% | > 10 µM | –
O=C(Nc1cnn(Cc2ccc(C(F)(F)F)cc2C(F)(F)F)c1)c1cc(-c2ccncc2)on1 [Compound 10, N-(1-(2,4-bis(trifluoromethyl)benzyl)-1H-pyrazol-4-yl)-5-(pyridin-4-yl)isoxazole-3-carboxamide] | < 25% | 1 to 10 µM | –
O=C(Nc1cnn(Cc2ccc(C(F)(F)F)cc2C(F)(F)F)c1)c1cc(-c2ccc(F)cc2F)on1 [Compound 16, N-(1-(2,4-bis(trifluoromethyl)benzyl)-1H-pyrazol-4-yl)-5-(2,4-difluorophenyl)isoxazole-3-carboxamide] | < 25% | > 10 µM | –
C[C@@H](c1ccc(C(F)(F)F)cc1C(F)(F)F)n1cc(NC(=O)c2cc(-c3cccnc3)on2)cn1 [Compound 37, (S)-N-(1-(1-(2,4-bis(trifluoromethyl)phenyl)ethyl)-1H-pyrazol-4-yl)-5-(pyridin-3-yl)isoxazole-3-carboxamide] | < 25% | > 10 µM | –
O=C(Nc1cnn(Cc2c(Cl)cccc2Cl)c1)c1cnc(-c2ccco2)s1 [Compound 147, N-(1-(2,6-dichlorobenzyl)-1H-pyrazol-4-yl)-2-(furan-2-yl)thiazole-5-carboxamide] | < 25% | > 10 µM | –
C[C@@H](c1ccc(C(F)(F)F)cc1C(F)(F)F)n1cc(NC(=O)c2cc(-c3ccccn3)[nH]n2)cn1 [Compound 120, (S)—N-(1-(1-(2,4-bis(trifluoromethyl)phenyl)ethyl)-1H-pyrazol-4-yl)-5-(pyridin-2-yl)-1H-pyrazole-3-carboxamide] | < 25% | > 10 µM | –
Cc1nn(Cc2ccc(C(F)(F)F)cc2C(F)(F)F)cc1NC(=O)c1cc(-c2ccccn2)on1 [Compound 29, N-(1-(2,4-bis(trifluoromethyl)benzyl)-3-methyl-1H-pyrazol-4-yl)-5-(pyridin-2-yl)isoxazole-3-carboxamide] | < 25% | > 10 µM | –
Cc1nn(-c2ccc(C(F)(F)F)cc2C(F)(F)F)cc1NC(=O)c1cc(-c2ccco2)on1 [Compound 94, N-(1-(2,4-bis(trifluoromethyl)phenyl)-3-methyl-1H-pyrazol-4-yl)-5-(furan-2-yl)isoxazole-3-carboxamide] | < 25% | > 10 µM | –
O=C(Nc1cn(Cc2ccc(C(F)(F)F)cc2C(F)(F)F)cn1)c1cc(-c2ccco2)on1 [Compound 17, N-(1-(2,4-bis(trifluoromethyl)benzyl)-1H-imidazol-4-yl)-5-(furan-2-yl)isoxazole-3-carboxamide] | < 25% | > 10 µM | –
C[C@H](c1ccc(C(F)(F)F)cc1C(F)(F)F)n1cc(NC(=O)c2ccccn2)cn1 [Compound 140, (R)—N-(1-(1-(2,4-bis(trifluoromethyl)phenyl)ethyl)-1H-pyrazol-4-yl)picolinamide] | < 25% | > 10 µM | –
Cc1nn(-c2ccc(C(F)(F)F)cc2C(F)(F)F)cc1NC(=O)/C=C/c1ccco1 [Compound 87, (E)—N-(1-(2,4-bis(trifluoromethyl)phenyl)-3-methyl-1H-pyrazol-4-yl)-3-(furan-2-yl)acrylamide] | < 25% | > 10 µM | –
CC(c1ccc(C(F)(F)F)cc1C(F)(F)F)n1cc(NC(=O)c2cc(-c3ccccn3)nn2C)cn1 (stereo not shown) [Compound 112, N-(1-(1-(2,4-bis(trifluoromethyl)phenyl)ethyl)-1H-pyrazol-4-yl)-1-methyl-3-(pyridin-2-yl)-1H-pyrazole-5-carboxamide] | 25 to 50% | > 10 µM | –
Cc1nn(Cc2ccc(C(F)(F)F)cc2C(F)(F)F)cc1NC(=O)/C=C/c1ccco1 [Compound 96, (E)—N-(1-(2,4-bis(trifluoromethyl)benzyl)-3-methyl-1H-pyrazol-4-yl)-3-(furan-2-yl)acrylamide] | < 25% | > 10 µM | –
C[C@H](c1ccc(C(F)(F)F)cc1C(F)(F)F)n1cc(NC(=O)c2cnccn2)cn1 [Compound 142, (R)—N-(1-(1-(2,4-bis(trifluoromethyl)phenyl)ethyl)-1H-pyrazol-4-yl)pyrazine-2-carboxamide] | < 25% | > 10 µM | –
O=C(Nc1cnn(-c2ccc(C(F)(F)F)cc2C(F)(F)F)c1)c1cc(-c2ccco2)on1 [Compound 27, N-(1-(2,4-bis(trifluoromethyl)phenyl)-1H-pyrazol-4-yl)-5-(furan-2-yl)isoxazole-3-carboxamide] | < 25% | > 10 µM | –
O=C(Nc1cnn(Cc2ccc(C(F)(F)F)cc2C(F)(F)F)c1)c1cnc(-c2ccccn2)s1 [Compound 118, N-(1-(2,4-bis(trifluoromethyl)benzyl)-1H-pyrazol-4-yl)-2-(pyridin-2-yl)thiazole-5-carboxamide] | < 25% | 1 to 10 µM | –
CC(c1ccc(C(F)(F)F)cc1C(F)(F)F)n1cc(NC(=O)/C=C/c2ccccn2)cn1 (stereo not shown) [Compound 83, (E)—N-(1-(1-(2,4-bis(trifluoromethyl)phenyl)ethyl)-1H-pyrazol-4-yl)-3-(pyridin-2-yl)acrylamide] | < 25% | > 10 µM | –
C[C@@H](c1ccc(C(F)(F)F)cc1C(F)(F)F)n1cc(NC(=O)c2cnc(-c3ccccn3)s2)cn1 [Compound 105, (S)—N-(1-(1-(2,4-bis(trifluoromethyl)phenyl)ethyl)-1H-pyrazol-4-yl)-2-(pyridin-2-yl)thiazole-5-carboxamide] | – | – | inhibition at 1 µM (Homo sapiens, U2OS, read-out: Inh. ATF6-Luc @ 1 μM [%], 1 μM test compound, 8 hr): < 25%; IC50 (Homo sapiens, U2OS, read-out: IC50 ATF6-Luc reporter [μM], dose-response 30 μM to 1 nM): > 10 µM
O=C(Nc1cnn(Cc2ccc(C(F)(F)F)cc2C(F)(F)F)c1)c1cncc(-c2ccc(F)cc2)c1 [Compound 20, N-(1-(2,4-bis(trifluoromethyl)benzyl)-1H-pyrazol-4-yl)-5-(4 fluorophenyl)nicotinamide] | < 25% | > 10 µM | –
O=C(Nc1cnn(C(c2ccc(C(F)(F)F)cc2C(F)(F)F)C2CC2)c1)c1cc(-c2ccccn2)on1 (stereo not shown) [Compound 33, N-(1-((2,4-bis(trifluoromethyl)phenyl)(cyclopropyl)methyl)-1H-pyrazol-4-yl)-5-(pyridin-2-yl)isoxazole-3-carboxamide] | < 25% | > 10 µM | –
O=C(Nc1cnn(Cc2ccc(C(F)(F)F)cc2C(F)(F)F)c1)c1nnc(-c2ccccn2)o1 [Compound 151, N-(1-(2,4-bis(trifluoromethyl)benzyl)-1H-pyrazol-4-yl)-5-(pyridin-2-yl)-1,3,4-oxadiazole-2-carboxamide] | < 25% | > 10 µM | –
Cc1c(NC(=O)c2cc(-c3ccccn3)on2)cnn1Cc1ccc(C(F)(F)F)cc1C(F)(F)F [Compound 30, N-(1-(2,4-bis(trifluoromethyl)benzyl)-5-methyl-1H-pyrazol-4-yl)-5-(pyridin-2-yl)isoxazole-3-carboxamide] | 25 to 50% | 1 to 10 µM | –
O=C(Nc1cnn(Cc2ccc(C(F)(F)F)cc2C(F)(F)F)c1)c1cc(-c2ncccc2Cl)on1 [Compound 31, N-(1-(2,4-bis(trifluoromethyl)benzyl)-1H-pyrazol-4-yl)-5-(3-chloropyridin-2-yl)isoxazole-3-carboxamide] | < 25% | > 10 µM | –
Ceapin-A4 [reference compound] | – | – | Inh. ATF6-Luc @ 1 μM [%] (1 μM test compound, 8 hr): + (+ refers to <25% inhibition at 1 μM); IC50 (dose-response 30 μM to 1 nM, read-out: IC50 ATF6-Luc reporter): > 10 µM
O=C(Nc1cnn(Cc2cc(C(F)(F)F)cc(C(F)(F)F)c2)c1)c1cc(-c2ccco2)on1 [Compound 28, N-(1-(3,5-bis(trifluoromethyl)benzyl)-1H-pyrazole-4-yl)-5-(furan-2-yl)isoxazole-3-carboxamide] | < 25% | > 10 µM | –
C[C@H](c1ccc(C(F)(F)F)cc1C(F)(F)F)n1cc(NC(=O)c2nnc(-c3ccccn3)o2)cn1 [Compound 133, (R)—N-(1-(1-(2,4-bis(trifluoromethyl)phenyl)ethyl)-1H-pyrazol-4-yl)-5-(pyridin-2-yl)-1,3,4-oxadiazole-2-carboxamide] | < 25% | > 10 µM | –
